Assay results as given in patent US10954240B2, “Compounds inhibiting leucine-rich repeat kinase enzyme activity” (Merck Sharp & Dohme Corp., priority 2014, dated 2021).

Columns and labels:
[1] = Rat pharmacokinetics, oral AUC; assay type: in vivo; conditions: single oral dose 10 mpk, plasma; for AUC: 10 mg/kg
From the text: Representative Example of a Pharmacokinetic Measurement
The pharmacokinetics of a compound of the invention (amorphous free form) can be studied following single intravenous and/or oral administration to mouse, rat, dog and/or monkey. In the present study, the pharmacokinetics of selected compounds of the invention (amorphous free form) were studied following single intravenous and/or oral administration to rat. The IV solution formulations contained 30% captisol/70% water or 1/1 DMSO/PEG-400. The PO solution formulations contained 10% tween/90% PEG-400 or 40% PEG-400/25% of a aqueous HPBCD solution (20%)/35% water. All IV formulations were given as solutions and all PO doses were given as well-behaved suspensions or solutions. Animals were fasted prior to oral dosing in single-dose studies. Oral bioavailability was estimated using non-cross-over study designs (n=2 or 3). Plasma samples were assayed using protein precipitation with acetonitrile/methanol (90/10, v/v) followed by HPLC/MS/MS analysis employing positive-ion Turbo IonSpray ionization. Plasma concentration-time data were analyzed by non-compartmental methods and expressed as AUC (area under the curve) values. Holding dose constant, higher oral AUC values represent greater oral plasma exposure.
The tables above provide oral AUC values for example 1, 8, 12, 17, and 20, in which the compound was dosed in rats at 10 mpk via a method similar to that described above.

[2] = molecular target: LRRK2 (G2019S mutation, GST-LRRK2 (amino acids 970-2527)) (Homo sapiens (Human), UniProt Q5S007, G2019S); assay: LRRK2 Km ATP LanthaScreen Assay; assay type: biochemical; conditions: mean IC50 of several test results
From the text: Unless otherwise noted, all LRRK2 IC50 data presented in tables refers to the LRRK2 Km ATP LanthaScreen™ Assay that is described in the Biological Assay section.
The data presented for the Km ATP LanthaScreen™ Assay represents mean IC50 values based on several test results and may have reasonable deviations depending on the specific conditions and reagents used. Reagents for the LRRK2 Km ATP LanthaScreen™ Assay were purchased from Life Technologies Corporation.
LRRK2 Km ATP LanthaScreen™ Assay
a) 400 nl of a 1:2.15 serial dilution of test compound (98 μM top assay concentration) is spotted via Labcyte Echo to certain wells in a 384 well black, untreated plate. Control wells contain 400 nl of either DMSO or 400 nl of a known inhibitor in DMSO.
c) A 30 minute room temperature incubation is followed by addition of 10 μl of 800 nM fluorescein labeled LRRKtide peptide substrate and 186 μM ATP solution in 1× assay buffer to all wells.
d) After a 60 minute room temperature incubation, 20 μl of TR-FRET Dilution Buffer (Invitrogen PV3756B) containing 4 nM Tb-labeled anti-phospho LRRKtide antibody and 20 mM EDTA is added to all wells.
e) Plates are incubated at room temperature for 1 hour and read on an Envision™ multi-mode plate reader with LanthaScreen™ settings. Results are analysed using Assay Data Analyzer.

Chain of LRRK2 (G2019S mutation, GST-LRRK2 (amino acids 970-2527)) (Q5S007 970-2527 G2019S): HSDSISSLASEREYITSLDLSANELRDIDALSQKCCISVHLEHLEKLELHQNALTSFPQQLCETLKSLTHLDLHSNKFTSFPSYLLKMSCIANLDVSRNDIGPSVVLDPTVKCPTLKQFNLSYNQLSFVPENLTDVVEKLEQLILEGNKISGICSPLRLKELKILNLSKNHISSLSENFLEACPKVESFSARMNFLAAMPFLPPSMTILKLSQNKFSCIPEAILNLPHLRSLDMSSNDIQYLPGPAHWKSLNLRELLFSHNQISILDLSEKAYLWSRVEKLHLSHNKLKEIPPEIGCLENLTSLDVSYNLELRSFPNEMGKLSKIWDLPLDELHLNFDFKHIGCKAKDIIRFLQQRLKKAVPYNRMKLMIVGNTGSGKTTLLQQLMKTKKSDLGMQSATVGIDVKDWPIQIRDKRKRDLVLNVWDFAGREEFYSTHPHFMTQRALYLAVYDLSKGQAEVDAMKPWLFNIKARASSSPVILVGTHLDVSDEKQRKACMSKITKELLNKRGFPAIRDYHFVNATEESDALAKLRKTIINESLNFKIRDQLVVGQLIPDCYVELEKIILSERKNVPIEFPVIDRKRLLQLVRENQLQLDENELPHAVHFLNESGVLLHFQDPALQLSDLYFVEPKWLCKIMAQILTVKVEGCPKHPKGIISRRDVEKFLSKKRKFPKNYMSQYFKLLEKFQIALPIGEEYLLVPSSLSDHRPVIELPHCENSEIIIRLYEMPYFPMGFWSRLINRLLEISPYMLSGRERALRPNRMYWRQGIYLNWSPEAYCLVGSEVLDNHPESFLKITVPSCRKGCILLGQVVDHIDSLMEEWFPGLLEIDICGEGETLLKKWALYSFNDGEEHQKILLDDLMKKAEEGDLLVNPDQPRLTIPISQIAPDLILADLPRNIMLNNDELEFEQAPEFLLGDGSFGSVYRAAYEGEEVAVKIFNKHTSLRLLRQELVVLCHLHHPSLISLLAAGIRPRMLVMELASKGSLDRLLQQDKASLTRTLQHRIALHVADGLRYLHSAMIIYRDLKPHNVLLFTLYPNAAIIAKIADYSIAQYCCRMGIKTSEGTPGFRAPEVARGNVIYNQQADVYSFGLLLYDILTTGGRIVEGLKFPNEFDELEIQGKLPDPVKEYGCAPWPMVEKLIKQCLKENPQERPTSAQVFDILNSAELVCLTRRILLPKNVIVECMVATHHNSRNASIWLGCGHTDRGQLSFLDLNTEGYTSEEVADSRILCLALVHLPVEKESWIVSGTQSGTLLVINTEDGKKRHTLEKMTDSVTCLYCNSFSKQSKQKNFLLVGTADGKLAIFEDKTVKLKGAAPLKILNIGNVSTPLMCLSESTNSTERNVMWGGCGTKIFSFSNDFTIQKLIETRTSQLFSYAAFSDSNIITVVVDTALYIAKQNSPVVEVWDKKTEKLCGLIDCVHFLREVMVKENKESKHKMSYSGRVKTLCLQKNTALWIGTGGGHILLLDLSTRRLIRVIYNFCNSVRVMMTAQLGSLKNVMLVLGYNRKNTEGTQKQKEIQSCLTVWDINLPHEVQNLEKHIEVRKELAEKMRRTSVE

For `Cn1cc(-c2ccc3cnn(-c4ccnc(N5CCOCC5)c4)c3c2)cn1` [Example 1, 4-(4-(6-(1-methyl-1H-pyrazol-4-yl)-1H-indazol-1-yl)pyridin-2-yl)morpholine], the AUC [1] was 2.1 µM·h and the “Rat AUC 10 mpk PO” value [1] was 2.1 ± 0.09 µM·h.

With `Cn1cc(-c2ccc3cnn(-c4ccnc(N5CCN(S(C)(=O)=O)CC5)c4)c3c2)cn1` [Example 8, 6-(1-methyl-1H-pyrazol-4-yl)-1-(2-(4-(methylsulfonyl)piperazin-1-yl)pyridin-4-yl)-1H-indazole] the AUC [1] was 41 µM·h, the “Rat AUC 10 mpk PO” value [1] was 41 ± 26 µM·h and the IC50 [2] was 45 nM.

In the case of `Cn1cc(-c2ccc3cnn(-c4ccnc(N5CC[C@@H](F)C5)c4)c3c2)cn1` [Example 12, (R)-1-(2-(3-fluoropyrrolidin-1-yl)pyridin-4-yl)-6-(1-methyl-1H-pyrazol-4-yl)-1H-indazole], the AUC [1] is reported as 0.82 µM·h and the IC50 [2] is reported as 89 nM.

With `COc1ccncc1-c1ccc2cnn(-c3ccnc(N4CCOCC4)c3)c2c1` [Example 17, 4-(4-(6-(4-methoxypyridin-3-yl)-1H-indazol-1-yl)pyridin-2-yl)morpholine] the AUC [1] was 10 µM·h, the “Rat AUC 10 mpk PO” value [1] was 10 ± 2.5 µM·h and the IC50 [2] was 43 nM.

With `CN(C)C(=O)CN1CCN(c2cc(-n3ncc4ccc(-c5cnn(C)c5)cc43)ccn2)CC1` [Example 20, N,N-dimethyl-2-(4-(4-(6-(1-methyl-1H-pyrazol-4-yl)-1H-indazol-1-yl)pyridin-2-yl)piperazin-1-yl)acetamide] the AUC [1] was 1 µM·h, the “Rat AUC 10 mpk PO” value [1] was 1.0 ± 0.19 µM·h and the IC50 [2] was 34 nM.
